# Reference: PubChem BioAssay (NCI)
#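 GI50 marks 50% less growth. Definition used: TGI = concentration required for complete inhibition of growth.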
# Experiments:
# Assay in all cases: growth of human tumour cells (NCI), 384-well format
# [1] = system: A549 NSCLC
# [2] = system: SR leukemia
# [3] = system: OVCAR-3 ovarian
# [4] = system: SN12C renal
# [5] = system: NCI-H522 lung
# [6] = system: HOP-62 NSCLC
# [7] = system: K-562 leukemia
# [8] = system: SK-OV-3 ovarian
# [9] = system: 786-0 renal
# [10] = system: ACHN renal
# [11] = system: SW-620 colon
# [12] = system: UO-31 renal
# [13] = system: SF-539 CNS
# [14] = system: OVCAR-8 ovarian
# [15] = system: NCI-H226 lung
# [16] = system: CCRF-CEM leukemia
# [17] = system: SF-268 CNS
# [18] = system: RPMI-8226 leukemia
# [19] = system: MDA-MB-435 melanoma
# [20] = system: T-47D breast
# [21] = system: NCI/ADR-RES ovarian
# [22] = system: NCI-H322M lung
# [23] = system: OVCAR-5 ovarian
# [24] = system: HL-60(TB) leukemia
# [25] = system: RXF 393 renal
# [26] = system: MDA-MB-468 breast
# [27] = system: U251 glioblastoma
# [28] = system: NCI-H23 lung
# [29] = system: HOP-92 NSCLC
# [30] = system: HCC-2998 colon
# [31] = system: M14 melanoma
# [32] = system: SK-MEL-2 melanoma
# [33] = system: UACC-257 melanoma
# [34] = system: MDA-MB-231 breast
# [35] = system: SK-MEL-28 melanoma
# [36] = system: KM12 colon
# [37] = system: NCI-H460 NSCLC
# [38] = system: MCF7 breast
# [39] = system: OVCAR-4 ovarian
# [40] = system: SK-MEL-5 melanoma
# [41] = system: HT29 colon
# [42] = system: DU-145 prostate
# [43] = system: LOX IMVI melanoma
# [44] = system: HCT-116 colon
# [45] = system: UACC-62 melanoma
# [46] = system: MOLT-4 leukemia
# [47] = system: CAKI-1 renal
# [48] = system: HCT-15 colon
# [49] = system: MALME-3M melanoma
# [50] = system: PC-3 prostate
# [51] = system: COLO 205 colon
# [52] = system: SNB-19 CNS
# [53] = system: TK-10 renal
# [54] = system: BT-549 breast
# [55] = system: IGROV1 ovarian
# [56] = system: A498 renal
# [57] = system: SF-295 CNS
smiles,measurement,setting,value
Nc1ccc(/C=C/C(=O)NCc2cc3cc(-c4ccc(C(=O)N5CCC(F)(F)CC5)cc4)cc(-c4ccc(F)cc4)c3o2)cn1,GI50,[1],252 nM
same,TGI,[1],699 nM
same,GI50,[2],1330 nM
same,TGI,[2],2690 nM
same,GI50,[3],53.9 nM
same,TGI,[3],217 nM
same,GI50,[4],17.6 nM
same,TGI,[4],32 nM
same,GI50,[5],18.1 nM
same,TGI,[5],34.8 nM
same,GI50,[6],65.6 nM
same,TGI,[6],242 nM
same,GI50,[7],33.3 nM
same,TGI,[7],175 nM
same,GI50,[8],20.9 nM
same,TGI,[8],49.1 nM
same,GI50,[9],117 nM
same,TGI,[9],249 nM
same,GI50,[10],121 nM
same,TGI,[10],348 nM
same,GI50,[11],23.9 nM
same,TGI,[11],53.4 nM
same,GI50,[12],52.3 nM
same,TGI,[12],174 nM
same,GI50,[13],15.5 nM
same,TGI,[13],30.3 nM
same,GI50,[14],16.8 nM
same,TGI,[14],32.8 nM
same,GI50,[15],7380 nM
same,TGI,[15],> 100000 nM
same,GI50,[16],21.4 nM
same,TGI,[16],37.2 nM
same,GI50,[17],175 nM
same,TGI,[17],325 nM
same,GI50,[18],58.7 nM
same,TGI,[18],191 nM
same,GI50,[19],146 nM
same,TGI,[19],283 nM
same,GI50,[20],20.1 nM
same,TGI,[20],50.6 nM
same,GI50,[21],307 nM
same,TGI,[21],1140 nM
same,GI50,[22],34.7 nM
same,TGI,[22],139 nM
same,GI50,[23],21.5 nM
same,TGI,[23],44 nM
same,GI50,[24],22.8 nM
same,TGI,[24],37.6 nM
same,GI50,[25],105 nM
same,TGI,[25],255 nM
same,GI50,[26],190 nM
same,TGI,[26],384 nM
same,GI50,[27],35.6 nM
same,TGI,[27],148 nM
same,GI50,[28],218 nM
same,TGI,[28],430 nM
same,GI50,[29],441 nM
same,TGI,[29],1830 nM
same,GI50,[30],114 nM
same,TGI,[30],270 nM
same,GI50,[31],328 nM
same,TGI,[31],1390 nM
same,GI50,[32],41.4 nM
same,TGI,[32],108 nM
same,GI50,[33],504 nM
same,TGI,[33],2910 nM
same,GI50,[34],549 nM
same,TGI,[34],1950 nM
same,GI50,[35],223 nM
same,TGI,[35],410 nM
same,GI50,[36],58.6 nM
same,TGI,[36],210 nM
same,GI50,[37],437 nM
same,TGI,[37],1570 nM
same,GI50,[38],213 nM
same,TGI,[38],485 nM
same,GI50,[39],212 nM
same,TGI,[39],472 nM
same,GI50,[40],174 nM
same,TGI,[40],360 nM
same,GI50,[41],331 nM
same,TGI,[41],985 nM
same,GI50,[42],259 nM
same,TGI,[42],641 nM
same,GI50,[43],567 nM
same,TGI,[43],2020 nM
same,GI50,[44],20.6 nM
same,TGI,[44],40.7 nM
same,GI50,[45],206 nM
same,TGI,[45],427 nM
same,GI50,[46],21.9 nM
same,TGI,[46],39.2 nM
same,GI50,[47],120 nM
same,TGI,[47],282 nM
same,GI50,[48],250 nM
same,TGI,[48],741 nM
same,GI50,[49],374 nM
same,TGI,[49],916 nM
same,GI50,[50],48.1 nM
same,TGI,[50],165 nM
same,GI50,[51],22.7 nM
same,TGI,[51],53.4 nM
same,GI50,[52],28 nM
same,TGI,[52],82 nM
same,GI50,[53],210 nM
same,TGI,[53],404 nM
same,GI50,[54],211 nM
same,TGI,[54],461 nM
same,GI50,[55],131 nM
same,TGI,[55],265 nM
same,GI50,[56],2270 nM
same,TGI,[56],33400 nM
same,GI50,[57],188 nM
same,TGI,[57],368 nM
